According to ChEMBL document CHEMBL2074167, “Sterol transport by the human breast cancer resistance protein (ABCG2) expressed in Lactococcus lactis” (J Biol Chem, 2003):

Columns and labels:
[1] = biological target: T1, Broad substrate specificity ATP-binding cassette transporter ABCG2 (Homo sapiens, UniProt Q9UNQ0); assay: TP_TRANSPORTER: ATPase assay in membrane vesicle from BCRP-expressing Lactococcus lactis cells; assay type: functional, cell membranes, NZ9000
T1 sequence (Q9UNQ0 whole entry): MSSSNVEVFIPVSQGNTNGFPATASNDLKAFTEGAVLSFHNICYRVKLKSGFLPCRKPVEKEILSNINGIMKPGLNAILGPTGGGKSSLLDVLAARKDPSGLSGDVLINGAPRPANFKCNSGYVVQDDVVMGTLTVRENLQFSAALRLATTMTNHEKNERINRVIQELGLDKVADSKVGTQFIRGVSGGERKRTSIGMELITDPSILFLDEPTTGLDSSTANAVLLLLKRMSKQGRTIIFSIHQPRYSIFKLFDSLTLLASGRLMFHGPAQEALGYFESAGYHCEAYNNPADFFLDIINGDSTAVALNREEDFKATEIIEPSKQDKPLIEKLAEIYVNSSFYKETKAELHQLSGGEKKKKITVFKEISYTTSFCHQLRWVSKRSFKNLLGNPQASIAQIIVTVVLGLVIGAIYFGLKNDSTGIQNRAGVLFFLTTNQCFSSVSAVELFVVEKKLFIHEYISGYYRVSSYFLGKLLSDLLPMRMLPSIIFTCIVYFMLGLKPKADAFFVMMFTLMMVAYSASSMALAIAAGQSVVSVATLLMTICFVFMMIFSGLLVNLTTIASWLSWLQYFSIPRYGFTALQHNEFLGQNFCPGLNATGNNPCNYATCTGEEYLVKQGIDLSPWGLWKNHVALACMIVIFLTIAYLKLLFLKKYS

[2] = biological target: T1, Broad substrate specificity ATP-binding cassette transporter ABCG2; assay: TP_TRANSPORTER: uptake in BCRP-expressing Lactococcus lactis cells; assay type: functional, NZ9000
[3] = biological target: T1, Broad substrate specificity ATP-binding cassette transporter ABCG2; assay: TP_TRANSPORTER: growth inhibition in BCRP-expressing Lactococcus lactis cells; assay type: functional, NZ9000
[4] = biological target: T1, Broad substrate specificity ATP-binding cassette transporter ABCG2; assay: TP_TRANSPORTER: uptake in membrane vesicle from BCRP-expressing Lactococcus lactis cells; assay type: functional, cell membranes, NZ9000

| Structure (SMILES) | Activity [1] | Activity [2] | other results |
| --- | --- | --- | --- |
| C[C@]12CC[C@@H]3c4ccc(O)cc4CC[C@H]3[C@@H]1CC[C@@H]2O [ESTRADIOL] | substrate [] | substrate [] |  |
| COc1cccc2c1C(=O)c1c(O)c3c(c(O)c1C2=O)C[C@@](O)(C(C)=O)C[C@@H]3O[C@H]1C[C@H](N)[C@H](O)[C@H](C)O1 [DAUNORUBICIN] | substrate [] |  |  |
| COC(=O)c1ccccc1-c1c2ccc(=N)cc-2oc2cc(N)ccc12.Cl [RHODAMINE123] |  | substrate [] |  |
| CC/C(=C(\c1ccccc1)c1ccc(OCCN(C)C)cc1)c1ccccc1 [TAMOXIFEN] | substrate [] |  |  |
| CC(C)CCC[C@@H](C)[C@H]1CC[C@H]2[C@@H]3CC=C4C[C@@H](O)CC[C@]4(C)[C@H]3CC[C@]12C [CHOLESTEROL] | substrate [] |  |  |
| CC[n+]1c(-c2ccccc2)c2cc(N)ccc2c2ccc(N)cc21.[Br-] [HOMIDIUM BROMIDE] |  | substrate [] | Activity [3]: substrate [] |
| CC(=O)[C@H]1CC[C@H]2[C@@H]3CCC4=CC(=O)CC[C@]4(C)[C@H]3CC[C@]12C [PROGESTERONE] | substrate [] |  |  |
| C[C@]12CC[C@H]3[C@@H](CCC4=CC(=O)CC[C@@]43C)[C@@H]1CC[C@@H]2O [TESTOSTERONE] | substrate [] |  |  |
| CCOc1ccc(-c2nc3cc(-c4nc5cc(N6CCN(C)CC6)ccc5[nH]4)ccc3[nH]2)cc1 |  | substrate [] | Activity [4]: substrate [] |
